The results in this text go back to ChEMBL document CHEMBL1201862, “PubChem BioAssay data set” (2004).

For experiment [1], the target named is Glucose-6-phosphate 1-dehydrogenase (Homo sapiens, UniProt P11413). As to the kind of experiment: inhibition of Homo sapiens G6PD, dose series – biochemical, fluorescence, selectivity assay for P. falciparum G6PD inhibitor project, dose response (AID 504792). It is filed as functional.
Another experiment has as its target T1, Hexokinase HKDC1 (Homo sapiens, UniProt Q2TB90).
T1 sequence (Q2TB90 whole entry): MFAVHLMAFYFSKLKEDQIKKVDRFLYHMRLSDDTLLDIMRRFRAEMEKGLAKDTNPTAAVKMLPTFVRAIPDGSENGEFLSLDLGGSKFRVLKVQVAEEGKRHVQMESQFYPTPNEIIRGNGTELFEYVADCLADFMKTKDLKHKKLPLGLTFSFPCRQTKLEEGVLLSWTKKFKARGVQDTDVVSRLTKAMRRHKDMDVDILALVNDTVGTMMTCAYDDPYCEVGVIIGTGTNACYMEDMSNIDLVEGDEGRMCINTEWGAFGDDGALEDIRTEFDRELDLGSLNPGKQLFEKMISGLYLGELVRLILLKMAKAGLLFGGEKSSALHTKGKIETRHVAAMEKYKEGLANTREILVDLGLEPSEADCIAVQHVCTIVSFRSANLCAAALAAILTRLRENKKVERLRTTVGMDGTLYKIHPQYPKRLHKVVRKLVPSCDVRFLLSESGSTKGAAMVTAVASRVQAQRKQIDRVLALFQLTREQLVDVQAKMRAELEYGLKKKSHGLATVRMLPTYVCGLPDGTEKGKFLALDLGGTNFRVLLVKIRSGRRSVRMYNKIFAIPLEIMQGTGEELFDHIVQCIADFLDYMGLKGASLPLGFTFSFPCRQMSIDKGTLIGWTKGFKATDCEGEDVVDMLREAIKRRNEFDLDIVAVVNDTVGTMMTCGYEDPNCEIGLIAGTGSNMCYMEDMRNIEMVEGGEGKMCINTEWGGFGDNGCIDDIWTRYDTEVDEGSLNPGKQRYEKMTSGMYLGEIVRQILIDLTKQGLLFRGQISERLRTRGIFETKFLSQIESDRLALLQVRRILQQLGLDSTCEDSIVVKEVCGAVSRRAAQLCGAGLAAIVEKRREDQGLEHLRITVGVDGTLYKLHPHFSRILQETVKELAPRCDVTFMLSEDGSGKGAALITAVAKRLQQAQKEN
As to the kind of experiment: inhibition of HKDC1 glucose phosphorylation – biochemical, W721R variant, dose response (AID 504729). Format: functional.

Experiment [2] deals with T2, Hepatocyte nuclear factor 4-alpha (Homo sapiens, UniProt P41235).
T2 sequence (P41235 whole entry): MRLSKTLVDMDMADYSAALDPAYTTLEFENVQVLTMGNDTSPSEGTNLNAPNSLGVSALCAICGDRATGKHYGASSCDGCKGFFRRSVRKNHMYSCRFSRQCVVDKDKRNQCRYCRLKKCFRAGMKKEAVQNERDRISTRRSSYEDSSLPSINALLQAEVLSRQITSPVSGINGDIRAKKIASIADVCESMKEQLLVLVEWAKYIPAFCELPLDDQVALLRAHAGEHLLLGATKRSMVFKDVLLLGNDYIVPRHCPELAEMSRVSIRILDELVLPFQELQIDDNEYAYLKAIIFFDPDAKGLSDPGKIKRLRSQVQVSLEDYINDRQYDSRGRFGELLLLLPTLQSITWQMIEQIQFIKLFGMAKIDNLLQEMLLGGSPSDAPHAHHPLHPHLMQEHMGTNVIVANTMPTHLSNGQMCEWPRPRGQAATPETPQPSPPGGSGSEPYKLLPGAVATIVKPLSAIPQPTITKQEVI
Format: functional, cell-based.

Experiment [3] in a line: viability of uninfected HEp-2 cells – cell-based, HTS, cytotoxicity control for RSV inhibitor project, dose response (AID 2410). Format: functional. As to conditions: human respiratory syncytial virus.
Another experiment deals with Bcl-2-like protein 10 (Homo sapiens, UniProt Q9HD36). Put plainly: Bcl-B/TR3 peptide binding disruption – biochemical, fluorescence polarization, FITC-TR3 peptide, selectivity assay for Bfl-1 inhibitor project, primary screen (AID 748).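 Also: fluorescence polarization from a fluorescein-labelled TR3 peptide binding purified Bcl-B.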
Experiment [4] has as its system Streptococcus sp. 'group A'. Put plainly: Streptococcus pyogenes SK(-)GAS viability under kanamycin – luminescence, BacTiterGlo, confirmation, counter-screen for streptokinase expression inhibitor project, dose response (AID 1900). Format: functional, organism-based.
In another experiment the target is T3, Streptokinase A (Streptococcus pyogenes serotype M1, UniProt P10520).
T3 sequence (P10520 whole entry): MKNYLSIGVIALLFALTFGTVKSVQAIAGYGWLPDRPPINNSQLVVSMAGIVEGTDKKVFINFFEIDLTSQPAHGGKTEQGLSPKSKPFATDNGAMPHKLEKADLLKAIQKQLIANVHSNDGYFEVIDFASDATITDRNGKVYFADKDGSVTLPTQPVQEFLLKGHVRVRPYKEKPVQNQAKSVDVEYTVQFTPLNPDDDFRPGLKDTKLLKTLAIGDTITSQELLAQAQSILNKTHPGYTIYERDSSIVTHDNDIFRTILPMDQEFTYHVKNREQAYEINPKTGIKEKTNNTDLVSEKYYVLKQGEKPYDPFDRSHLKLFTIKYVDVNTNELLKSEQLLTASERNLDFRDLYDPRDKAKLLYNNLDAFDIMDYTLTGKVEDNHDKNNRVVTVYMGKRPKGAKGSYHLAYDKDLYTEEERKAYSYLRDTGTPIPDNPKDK
Put plainly: viability-normalized secreted streptokinase activity reduction – plasminogen activation absorbance, OD405, dose response (AID 1914).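 Also: secreted streptokinase activity via plasminogen activation per viability signal from cell pellet.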 It is filed as functional, Streptococcus pyogenes M1 GAS.

Another experiment concerns Streptococcus. As to the kind of experiment: GAS UMAA2166 growth inhibition – luminescence, BacTiterGlo, counter-screen for streptokinase expression inhibitor project, dose response (AID 1915).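 Also: potency for reduction of bacterial viability or growth.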 It is filed as functional, organism-based. On the technique in general: The purpose of a counterscreen is to sort out artefacts and off-target activity.
In another experiment the target is X-box-binding protein 1 (Homo sapiens, UniProt P17861). Format: functional, Cricetulus griseus.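 Also: confirmatory dose-response counter-screen serving a CHOP assay.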
In a further experiment the target is Cytochrome P450 2C9 (Homo sapiens, UniProt P11712). As to conditions: Potency.
The nature of experiment [5]: luciferase reporter signal suppression in cells – H4 neuroglioma cells, luminescence, dose response (AID 1990). Format: functional, cell-based.
The nature of experiment [6]: Luminescence Cell-Based Dose Response HTS to Identify Inhibitors of 5'UTR Stem-Loop Driven Prion Protein mRNA Translation in H4 Neuroglioblastoma Cells. [Related pubchem assays: 1827 (Project Summary), 1813 (Primary HTS)]. Format: functional.
For experiment [7], the target named is T4, Heat shock factor protein 1 (Mus musculus, UniProt P38532).
T4 sequence (P38532 whole entry): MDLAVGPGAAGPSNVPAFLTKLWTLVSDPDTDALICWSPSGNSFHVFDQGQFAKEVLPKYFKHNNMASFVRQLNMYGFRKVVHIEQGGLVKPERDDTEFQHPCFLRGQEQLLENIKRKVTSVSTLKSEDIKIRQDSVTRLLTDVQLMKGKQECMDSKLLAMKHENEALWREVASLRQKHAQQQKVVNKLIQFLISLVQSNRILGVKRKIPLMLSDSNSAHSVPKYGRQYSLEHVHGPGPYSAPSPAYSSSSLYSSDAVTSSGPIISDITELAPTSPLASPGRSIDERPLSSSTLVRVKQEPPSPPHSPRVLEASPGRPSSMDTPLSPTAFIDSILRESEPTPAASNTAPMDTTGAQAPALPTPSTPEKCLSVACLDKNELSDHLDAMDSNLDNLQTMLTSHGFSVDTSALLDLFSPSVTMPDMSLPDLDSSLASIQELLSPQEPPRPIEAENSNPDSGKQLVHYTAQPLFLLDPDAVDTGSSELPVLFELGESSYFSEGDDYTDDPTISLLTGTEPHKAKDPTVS
Put plainly: decrease of HSF1-responsive luciferase luminescence – cell-based, NIH3T3, dose retest, confirmation (AID 2382).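 Also: NIH3T3 fibroblasts with HSF1-driven luciferase reporter stressed by proteasome inhibitor MG132; luminescence from HSF1-driven luciferase expression after 8 hours of MG132 stress.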 Format: functional.

Experiment [8] is described as follows: alpha-synuclein stem-loop luciferase translation blockers – H4 neuroglioma cells, luminescence, confirmation (AID 1988). It is filed as functional, cell-based.
Experiment [9] has as its target Luciferin 4-monooxygenase (Photinus pyralis, UniProt P08659). Put plainly: inhibition of purified Photinus pyralis luciferase – biochemical, luminescence, dose response (AID 1891).
Experiment [10] in a line: Luminescence Cell-Based Dose Confirmation HTS to Identify Inhibitors of Platelet Dense Granule Release. [Related pubchem assays: 1663 (Primary HTS), 1678 (Summary of Project)]. It is filed as functional.
A short description of experiment [11]: Luminescence-based counterscreen assay for KLF5 inhibitors: dose response cell-based high throughput screening assay to identify cytotoxic compounds using the IEC-6 intestinal epithelial cell line. [Related pubchem assays: 1700 (Primary screen.), 1834 (Confirmation screen.), 1858 (Summary AID.), 1905 (Counterscreen.)]. It is filed as functional.
Experiment [12] addresses Neurotensin receptor type 1 (Homo sapiens, UniProt P30989). It is filed as functional.
Experiment [13] concerns the target Protein-tyrosine kinase 2-beta (Homo sapiens, UniProt Q14289).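 Also: potency of inhibitors of PYK2 kinase phosphorylation of poly-GT substrate.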

Activity calls are given as the source filed them.

Chain of Neurotensin receptor type 1 (P30989 whole entry): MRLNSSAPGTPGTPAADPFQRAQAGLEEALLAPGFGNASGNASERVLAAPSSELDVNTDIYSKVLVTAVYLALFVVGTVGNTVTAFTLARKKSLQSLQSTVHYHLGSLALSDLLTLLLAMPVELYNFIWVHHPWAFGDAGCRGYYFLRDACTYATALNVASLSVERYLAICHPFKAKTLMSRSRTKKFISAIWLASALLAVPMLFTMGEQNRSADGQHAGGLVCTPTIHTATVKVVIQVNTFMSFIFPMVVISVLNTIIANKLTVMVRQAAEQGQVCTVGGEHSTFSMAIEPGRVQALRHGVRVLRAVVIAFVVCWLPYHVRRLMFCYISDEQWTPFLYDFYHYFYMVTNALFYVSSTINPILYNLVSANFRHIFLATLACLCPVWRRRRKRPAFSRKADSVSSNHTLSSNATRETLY
Chain of Cytochrome P450 2C9 (P11712 whole entry): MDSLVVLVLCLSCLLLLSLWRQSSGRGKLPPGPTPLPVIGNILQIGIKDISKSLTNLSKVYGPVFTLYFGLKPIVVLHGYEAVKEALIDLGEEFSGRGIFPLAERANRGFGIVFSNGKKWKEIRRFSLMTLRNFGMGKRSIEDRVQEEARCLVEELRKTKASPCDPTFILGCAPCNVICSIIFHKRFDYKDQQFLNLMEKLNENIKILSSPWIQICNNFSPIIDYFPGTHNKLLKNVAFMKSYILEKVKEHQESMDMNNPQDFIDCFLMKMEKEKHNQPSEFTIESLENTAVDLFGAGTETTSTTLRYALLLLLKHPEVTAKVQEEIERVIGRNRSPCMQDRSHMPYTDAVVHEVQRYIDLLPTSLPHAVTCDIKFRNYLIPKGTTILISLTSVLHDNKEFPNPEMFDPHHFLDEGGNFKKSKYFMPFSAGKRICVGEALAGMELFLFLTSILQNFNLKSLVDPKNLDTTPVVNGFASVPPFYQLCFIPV
Chain of Luciferin 4-monooxygenase (P08659 whole entry): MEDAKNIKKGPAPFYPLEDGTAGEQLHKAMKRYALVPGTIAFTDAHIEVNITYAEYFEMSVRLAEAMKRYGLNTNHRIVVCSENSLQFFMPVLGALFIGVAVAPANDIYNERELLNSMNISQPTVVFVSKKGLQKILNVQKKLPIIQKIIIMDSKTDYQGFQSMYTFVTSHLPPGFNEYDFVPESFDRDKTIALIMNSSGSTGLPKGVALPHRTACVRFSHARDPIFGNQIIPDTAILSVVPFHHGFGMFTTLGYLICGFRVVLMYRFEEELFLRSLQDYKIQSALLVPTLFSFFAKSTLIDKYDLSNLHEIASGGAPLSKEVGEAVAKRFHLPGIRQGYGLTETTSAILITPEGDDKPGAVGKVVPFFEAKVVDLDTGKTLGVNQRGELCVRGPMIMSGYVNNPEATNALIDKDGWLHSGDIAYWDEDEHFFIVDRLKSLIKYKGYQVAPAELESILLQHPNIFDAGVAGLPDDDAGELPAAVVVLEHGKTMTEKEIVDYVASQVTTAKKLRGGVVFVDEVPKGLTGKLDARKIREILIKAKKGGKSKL
Chain of X-box-binding protein 1 (P17861 whole entry): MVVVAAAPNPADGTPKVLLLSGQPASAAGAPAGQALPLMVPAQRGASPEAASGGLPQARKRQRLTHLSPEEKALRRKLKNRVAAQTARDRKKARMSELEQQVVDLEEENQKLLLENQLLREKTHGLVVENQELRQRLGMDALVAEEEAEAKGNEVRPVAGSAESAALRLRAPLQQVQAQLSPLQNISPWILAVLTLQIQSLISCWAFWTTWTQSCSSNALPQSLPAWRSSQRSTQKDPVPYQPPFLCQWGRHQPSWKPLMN
Chain of Bcl-2-like protein 10 (Q9HD36 whole entry): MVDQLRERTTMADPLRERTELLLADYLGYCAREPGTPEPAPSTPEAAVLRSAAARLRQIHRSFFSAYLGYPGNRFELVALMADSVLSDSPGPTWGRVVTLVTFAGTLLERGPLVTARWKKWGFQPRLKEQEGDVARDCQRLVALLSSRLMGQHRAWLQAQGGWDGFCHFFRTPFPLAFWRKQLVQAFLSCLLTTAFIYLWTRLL
Chain of Glucose-6-phosphate 1-dehydrogenase (P11413 whole entry): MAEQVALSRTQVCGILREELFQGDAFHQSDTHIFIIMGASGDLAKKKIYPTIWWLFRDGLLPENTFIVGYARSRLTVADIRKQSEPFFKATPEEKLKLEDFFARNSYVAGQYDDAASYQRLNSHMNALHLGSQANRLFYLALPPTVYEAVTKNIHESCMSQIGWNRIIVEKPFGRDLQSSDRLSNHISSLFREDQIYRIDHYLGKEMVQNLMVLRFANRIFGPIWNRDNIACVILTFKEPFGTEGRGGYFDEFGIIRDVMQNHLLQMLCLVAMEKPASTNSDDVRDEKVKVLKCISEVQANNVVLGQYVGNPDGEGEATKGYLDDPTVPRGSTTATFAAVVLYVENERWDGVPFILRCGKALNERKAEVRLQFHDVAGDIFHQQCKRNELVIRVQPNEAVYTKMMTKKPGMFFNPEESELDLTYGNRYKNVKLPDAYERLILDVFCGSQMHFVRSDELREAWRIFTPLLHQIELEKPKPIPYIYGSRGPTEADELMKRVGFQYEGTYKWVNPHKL
Chain of Protein-tyrosine kinase 2-beta (Q14289 whole entry): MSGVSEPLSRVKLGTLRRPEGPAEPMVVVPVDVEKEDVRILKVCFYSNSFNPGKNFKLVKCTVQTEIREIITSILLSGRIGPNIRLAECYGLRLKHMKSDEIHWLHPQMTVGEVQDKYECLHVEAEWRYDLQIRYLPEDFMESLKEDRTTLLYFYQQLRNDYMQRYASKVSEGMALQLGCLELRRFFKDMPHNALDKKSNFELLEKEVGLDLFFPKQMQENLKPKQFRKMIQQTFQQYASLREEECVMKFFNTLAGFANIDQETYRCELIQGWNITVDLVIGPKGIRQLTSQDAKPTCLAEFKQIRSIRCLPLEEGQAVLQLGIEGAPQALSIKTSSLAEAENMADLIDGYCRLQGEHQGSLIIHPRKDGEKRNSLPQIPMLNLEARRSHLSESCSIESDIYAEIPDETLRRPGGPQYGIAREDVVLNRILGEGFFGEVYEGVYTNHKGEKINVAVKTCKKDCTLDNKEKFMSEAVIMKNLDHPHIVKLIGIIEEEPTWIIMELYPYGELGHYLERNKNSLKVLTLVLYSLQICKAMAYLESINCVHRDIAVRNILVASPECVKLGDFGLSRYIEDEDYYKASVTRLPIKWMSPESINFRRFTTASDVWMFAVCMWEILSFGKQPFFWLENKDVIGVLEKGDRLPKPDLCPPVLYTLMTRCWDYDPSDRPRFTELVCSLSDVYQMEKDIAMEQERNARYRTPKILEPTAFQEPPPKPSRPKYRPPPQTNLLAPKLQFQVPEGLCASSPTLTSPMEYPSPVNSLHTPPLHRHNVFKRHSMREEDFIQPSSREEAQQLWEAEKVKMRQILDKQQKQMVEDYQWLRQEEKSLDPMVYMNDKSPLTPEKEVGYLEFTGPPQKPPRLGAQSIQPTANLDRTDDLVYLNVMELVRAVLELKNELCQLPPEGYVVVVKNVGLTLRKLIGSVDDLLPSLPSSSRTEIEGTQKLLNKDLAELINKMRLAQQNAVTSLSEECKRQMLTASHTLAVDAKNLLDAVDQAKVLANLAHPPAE

As to `Cc1ccc(SC2=C(Sc3ccc(C)cc3)C(=O)c3ccccc3C2=O)cc1`, the IC50 (commonly the concentration that gives 50% inhibition) in experiment [1] is > 80 µM (inactive); at Hexokinase HKDC1, 15.9 µM (active); in experiment [2], 1.38 µM (active).
On to `Cc1cc(Cl)cc(C)c1OCCn1ccnc1`, for which, in experiment [3], the CC50 (commonly the concentration at which the toxic effect on the cells reaches its halfway point) is 33.5 µM (active). For the same compound, in the experiment “cells”, the IC50 was 32.9 µM (active).
As to `O=c1c([N+](=O)[O-])cc(C(F)(F)F)cn1Cc1cccc(Cl)c1`, the IC50 on Bcl-2-like protein 10 is > 100 µM (inactive).
Consider `COC(=O)C(Nc1ccccc1Cl)(c1cc(C)c(O)c(C)c1)C(F)(F)F` (stereo unspecified), for which the figures for the EC50 (in experiment [4]; at Streptokinase A; in the experiment on Streptococcus) were 1.58 µM (active), 17.2 µM (active) and 9.48 µM (active), respectively. For the same compound, at X-box-binding protein 1, the “Absolute IC50 (XBP1)” value was less than 10 µM.
On to `O=C(c1ccc(F)cc1)N1CCN2C(=O)c3ccccc3C12c1ccccc1` (stereo unspecified), for which the IC50 in the experiment “cells” is 31.2 µM (active).
`CC(C)C[C@@H](CC(=O)N[C@@H](CCC(=O)O)CC(=O)O)NC(=O)[C@@H]1CCCC[C@H]1NC(=O)C[C@@H](NC(=O)C[C@H](CO)NC(=O)[C@@H]1CCCC[C@H]1N)C(C)C`: the AC50 (commonly the concentration giving half of the maximal activity seen) at Cytochrome P450 2C9 was 20 µM (inconclusive).
For the compound `COc1ccc(OC)c(N/C=C/C(=O)c2ccccc2)c1`, the EC50 – broadly, the concentration needed to bring the measured effect to its halfway point – in [5] was 6.32 µM (inconclusive); in [6] it was 1.35 µM (active); in experiment [7] it was 0.476 µM (inconclusive); in experiment [8] it was 3.8 µM (active); in experiment [9], 0.276 µM (active); in experiment [10], 0.982 µM (active). For the same compound, the IC50 in experiment [11] is recorded as > 39.8 µM (not active).
On to `CC(=O)OCC1OC(C#Cc2ccc(C(C)(C)C)cc2)C=CC1OC(C)=O` (stereo unspecified), for which the AC50 on Cytochrome P450 2C9 was 6.31 µM (inconclusive).
`COc1ccc(-n2ncc3c(N4CCN(Cc5ccccc5)CC4)ncnc32)cc1`: the EC50 in experiment [12] is 35.9 µM (inactive).
Turning to `COc1cc(/N=C/c2c(O)[nH]c3ccccc23)cc(OC)c1OC`, the EC50 is < 0.1 µM (active) in [5] and 0.108 µM (active) in experiment [8]. Besides, the figures for the IC50 in experiment [11] and in experiment [13] were > 39.8 µM (not active) and 3.15 µM (active), respectively.
Turning to `COC(=O)COc1ccc(/C=N/NC(=O)CN(c2ccccc2OC)S(=O)(=O)c2ccccc2)cc1`, the EC50 in experiment [12] was 6.65 µM (active).
